Where two headings read alike, the source gives them in different places.
System: infected PBMCs (VSV-G pseudotyped HIV virus VSV-G/pNLG1-P2A-ΔEnv)
Test: cells
Assay type: cell-based, human
Settings: read-out: TACK EC50

Molecule	EC50 (Homo sapiens, PBMC) [nM]	EC50 [nM]
COc1c(C#N)cc(C(F)F)cc1Oc1c(C(C)(F)F)ncn(Cc2c(C)nc(C)[nH]c2=O)c1=O [Example 9, 3-((4-(1,1-difluoroethyl)-1-((2,4-dimethyl-6-oxo-1,6-dihydropyrimidin-5-y1)methyl)-6-oxo-1,6-dihydropyrimidin-5-yl)oxy)-5-(difluoromethyl)-2-methoxybenzonitrile]	287	
Cc1nc(N)c(Cn2cnc(C(F)(F)F)c(Oc3cc(C(F)F)cc(C#N)c3C)c2=O)c(=O)[nH]1 [Example 60, 3-((1-((4-amino-2-methyl-6-oxo-1,6-dihydropyrimidin-5-yl)methyl)-6-oxo-4-(trifluoromethyl)-1,6-dihydropyrimidin-5-yl)oxy)-5-(difluoromethyl)-2-methylbenzonitrile]	228	
Cc1nc(C)c(Cn2cnc(C(C)(F)F)c(Oc3c(C)cc(C#N)cc3Cl)c2=O)c(=O)[nH]1 [Example 12, 3-chloro-4-((4-(1,1-difluoroethyl)-1-((2,4-dimethyl-6-oxo-1,6-dihydropyrimidin-5-y1)methyl)-6-oxo-1,6-dihydropyrimidin-5-yl)oxy)-5-methylbenzonitrile]	200	
Cc1nc(C)c(Cn2cnc(C(F)(F)C(F)F)c(Oc3cc(C#N)cc(C(F)F)c3)c2=O)c(=O)[nH]1 [Example 69, 3-(difluoromethyl)-5-((1-((2,4-dimethyl-6-oxo-1,6-dihydropyrimidin-5-yl)methyl)-6-oxo-4-(1,1,2,2-tetra-fluoroethyl)-1,6-dihydropyrimidin-5-yl)oxy)benzonitrile]	340	
Cc1nc(C)c(Cn2cnc(C(F)(F)C(F)(F)F)c(Oc3c(F)ccc(C#N)c3F)c2=O)c(=O)[nH]1 [Example 71, 3-((1-((2,4-dimethyl-6-oxo-1,6-dihydropyrimidin-5-yl)methyl)-6-oxo-4-(perfluoroethyl)-1,6-dihydropyrimidin-5-yl)oxy)-2,4-difluorobenzonitrile]	149	
Cc1nc(COc2ncccn2)[nH]c(=O)c1Cn1cnc(C(C)(F)F)c(Oc2cc(Cl)cc(C#N)c2F)c1=O [Example 24, 5-chloro-3-((4-(1,1-difluoroethyl)-1-((4-methyl-6-oxo-2-((pyrimidin-2-yloxy)methyl)-1,6-dihydropyrimidin-5-yl)methyl)-6-oxo-1,6-dihydropyrimidin-5-yl)oxy)-2-fluorobenzonitrile]	339	
Cc1nc(C)c(Cn2cnc(C(C)F)c(Oc3cc(Cl)cc(C#N)c3F)c2=O)c(=O)[nH]1 (single isomer, unassigned) [Example 31]		397
Cc1nc(C)c(Cn2cnc(C(F)(F)C(F)(F)F)c(Oc3cccc(C#N)c3F)c2=O)c(=O)[nH]1 [Example 85, 3-((1-((2,4-dimethyl-6-oxo-1,6-dihydropyrimidin-5-yl)methyl)-6-oxo-4-(perfluoroethyl)-1,6-dihydropyrimidin-5-yl)oxy)-2-fluorobenzonitrile]	441	
Cc1nc(C2CC2)c(Cn2cnc(C(F)(F)C(F)F)c(Oc3cc(C(F)F)cc(C#N)c3C)c2=O)c(=O)[nH]1 [Example 62]	406	
Cc1cc(C#N)cc(Oc2c(C(F)(F)C(F)(F)F)ncn(Cc3c(C)nc(C)[nH]c3=O)c2=O)c1 [Example 88]	397	
Cc1nc(N)c(Cn2cnc(C(F)(F)C(F)(F)F)c(Oc3cc(C(F)F)cc(C#N)c3C)c2=O)c(=O)[nH]1 [Example 37, 3-((1-((4-amino-2-methyl-6-oxo-1,6-dihydropyrimidin-5-yl)methyl)-6-oxo-4-(perfluoroethyl)-1,6-dihydropyrimidin-5-yl)oxy)-5-(difluoromethyl)-2-methylbenzonitrile]	114	
3-((4-(1, 1-difluoroethyl)-1-((2,4- dimethyl-6-oxo-1,6-dihydropyrimidin- 5-y1)methyl)-6-oxo-1,6- dihydropyrimidin-5-yl)oxy)-2,4,5- trifluorobenzonitrile [Example 14]		343
Cc1nc(C)c(Cn2cnc(C(F)(F)CF)c(Oc3cc(C(F)F)cc(C#N)c3C)c2=O)c(=O)[nH]1 [Example 5, 5-(difluoromethyl)-3-((1-((2,6-dimethyl-4-oxo-4,5-dihydropyrimidin-5-yl)methyl)-6-oxo-4-(1,1,2-trifluoroethyl)-1,6-dihydropyrimidin-5-yl)oxy)-2-methylbenzonitrile]	187	
Cc1cc(C#N)c(F)c(Oc2c(C(F)(F)C(F)(F)F)ncn(Cc3c(C)nc(C)[nH]c3=O)c2=O)c1 [Example 93, 3-((1-((2,4-dimethyl-6-oxo-1,6-dihydropyrimidin-5-yl)methyl)-6-oxo-4-(perfluoroethyl)-1,6-dihydropyrimidin-5-yl)oxy)-2-fluoro-5-methylbenzonitrile]	172	
Cc1nc(C)c(Cn2cnc(C(C)F)c(Oc3cc(Cl)cc(C#N)c3Cl)c2=O)c(=O)[nH]1 (single isomer, unassigned) [Example 34, (S) or (R)-2,5-dichloro-3-((1-((2,4-dimethyl-6-oxo-1,6-dihydropyrimidin-5-yl)methyl)-4-(1-fluoroethyl)-6-oxo-1,6-dihydropyrimidin-5-yl)oxy)benzonitrile]	474	
Cc1nc(C(F)F)c(Cn2cnc(C(F)(F)C(F)(F)F)c(Oc3cc(C(F)F)cc(C#N)c3C)c2=O)c(=O)[nH]1 [Example 65, 5-(difluoromethyl)-3-((1-((4-(difluoromethyl)-2-methyl-6-oxo-1,6-dihydropyrimidin-5-yl)methyl)-6-oxo-4-(perfluoroethyl)-1,6-dihydropyrimidin-5-yl)oxy)-2-methylbenzonitrile]	382	
Cc1nc(C)c(Cn2cnc(C(C)(F)F)c(Oc3cc(C(F)F)cc(C#N)c3C)c2=O)c(=O)[nH]1 [Example 6, 3-((4-(1,1-difluoroethyl)-1-((2,4-dimethyl-6-oxo-1,6-dihydropyrimidin-5-y1)methyl)-6-oxo-1,6-dihydropyrimidin-5-yl)oxy)-5-(difluoromethyl)-2-methylbenzonitrile]	201	
Cc1ncc(Cn2cnc(C(F)(F)C(F)F)c(Oc3cc(C(F)F)cc(C#N)c3C)c2=O)c(=O)[nH]1 [Example 70, 5-(difluoromethyl)-2-methyl-3-((1-((2-methyl-6-oxo-1,6-dihydropyrimidin-5-yl)methyl)-6-oxo-4-(1,1,2,2-tetra-fluoroethyl)-1,6-dihydropyrimidin-5-yl)oxy)benzonitrile]	203	
Cc1nc(C)c(Cn2cnc(C(F)(F)C(F)F)c(Oc3c(C)cc(C#N)cc3Cl)c2=O)c(=O)[nH]1 [Example 98, 3-chloro-4-((1-((2,4-dimethyl-6-oxo-1,6-dihydropyrimidin-5-yl)methyl)-6-oxo-4-(1,1,2,2-tetrafluoroethyl)-1,6-dihydropyrimidin-5-yl)oxy)-5-methylbenzonitrile]	183	
Cc1nc(C)c(Cn2cnc(C(F)(F)C(F)F)c(Oc3cc(Cl)cc(C#N)c3F)c2=O)c(=O)[nH]1 [Example 81, 5-chloro-3-((1-((2,4-dimethyl-6-oxo-1,6-dihydropyrimidin-5-yl)methyl)-6-oxo-4-(1,1,2,2-tetrafluoroethyl)-1,6-dihydropyrimidin-5-yl)oxy)-2-fluorobenzonitrile]	156	

From patent US12258329B2 (Merck Sharp & Dohme LLC, priority 2018, dated 2025)
